Measured values reported in US12678448B2, “Polymeric carriers for delivery of therapeutic agents” (priority 2020, dated 2026).
“Also recorded” adds a separate entry of the source.

Key:
[1] = system: endometrial cancer cells; details: cited from earlier work
[2] = system: KB cells; experiment: MTT cytotoxicity of DOX formulations, 30 min treatment then 48 h; assay type: cell-based, human; details: FASA up to 200 μg/mL
Method: In vitro cytotoxicity. Cytotoxicity assay was performed on different cancer cell lines (KB, 4T1.2, CT26, MDA-MB-468 and HCT116). Cells were seeded in 96-well plates at a density of 5×10^3 cells/well with 100 μL of complete culture medium (DMEM or RPMI 1640 with 10% FBS and 1% streptomycin/penicillin).
The cytotoxicity of PASA/DOX and FASA/DOX at a carrier/DOX ratio of 10/1 (w/w) were compared to free DOX and Doxil at various DOX concentrations. FASA control was added to cells at concentrations equivalent to the amounts of carrier in the corresponding DOX formulations. In order to confirm folate-mediated active targeting, free folate (100 μM) was added along with the FASA/DOX micelles. Cells were incubated for 30 min in drug-containing medium and then cultured for another 48 h in fresh medium prior to MTT assay.

[3] = toxicity evaluation (body weight, AST/ALT, histology); assay type: in vivo, mice
Method: In vivo therapeutic study. In vivo antitumor efficacy of DOX-loaded PASA and FASA micelles was tested in syngeneic 4T1.2 mouse breast cancer model and CT26 mouse colon cancer model, respectively. Female BALB/c mice (4-6 weeks) were s.c. inoculated with 4T1.2 or CT26 cells (5×10^5 cells per mouse). When the tumor volume reached ~50 mm^3, mice were randomly divided into eight groups (n=5), and treated via tail vein injection with PBS, DOX, 5-ASA+DOX, Doxil, blank PASA micelles, blank FASA micelles, DOX-loaded PASA micelles or DOX-loaded FASA micelles, respectively once every three days for three times (polymer: 50 mg/kg, DOX: 5 mg/kg, 5-ASA: 20 mg/kg). Tumor sizes were monitored every three days following the initiation of the treatment and calculated by the formula: (Length×Width^2)/2. Body weights were also followed as an indication of toxicity. After completion of the experiment, tumor and major organs were collected for hematoxylin and eosin (H&E) staining. Blood samples were collected for biochemical analysis of alanine transaminase (ALT) and aspartate aminotransferase (AST).
Histopathological Analysis. Tumors and major organs including heart, liver, spleen, lung and kidney were excised and fixed in PBS containing 10% formaldehyde after completion of the in vivo therapy study, followed by embedment in paraffin. The paraffin embedded samples were sectioned into slices at 4 μm using an HM 325 Rotary Microtome. The tissue slices were then subjected to H&E staining for histopathological examination under a Zeiss Axiostar plus Microscope (PA, USA).
ALT and AST assessment. Mouse serum was obtained for blood biochemical assessment. ALT and AST were measured by ALT/SGPT or […] liqui-UV assay kit following manufacturer's protocols.

[4] = system: 4T1.2 tumor; set-up: species or system mice; details: mouse, in vivo, iv
Method: Tissue biodistribution. […] The mice were sacrificed and perfused at 24 h post injection. Tumors and major organs including heart, liver, spleen, lung and kidney were sectioned and observed under the fluorescence microscope (BZ-X710, Japan).

[5] = in vitro DOX release by dialysis; assay type: physicochemical; details: free drug control
Method: In vitro drug release. The release of DOX from DOX-loaded PASA and FASA micelles at different pH was studied using a dialysis method. Briefly, 2 mL of PASA/DOX and FASA/DOX micelles containing 1 mg of DOX and 10 mg of polymer were placed in a dialysis bag (MWCO 3.5 kDa) and immersed into 40 mL of 0.1 M PBS solution containing 0.5% (w/v) Tween 80 at pH 5 and pH 7.4. The experiment was performed in an incubation shaker at 37° C. at 100 rpm. At selected time intervals, 10 μL solution in the dialysis bag and 1 mL medium outside the dialysis bag were withdrawn while same amount of fresh dialysis solution was added for replenishment. The concentration of DOX was examined by fluorescence spectrometry (excitation, 480 nm; emission, 510 to 620 nm). Free DOX was included as control.

[6] = system: KB cells; experiment: cellular uptake, fluorescence microscopy and flow cytometry; assay type: cell-based, human
Method: Cellular uptake study. KB, 4T1.2, CT26, MDA-MB-468, HCT116 tumor cells and M2 macrophages were seeded to 6-well plates (3×10^5/well), respectively. After overnight incubation, the culture medium was replaced by fresh medium containing free DOX, PASA/DOX and FASA/DOX micelles with or without 100 μM free folate, respectively, at an equivalent DOX concentration of 6 μg/mL (carrier/DOX ratio: 10/1 (w/w)). After incubation for 30 min at 37° C., cells were washed with cold PBS and fixed with PBS containing 4% (w/v) formaldehyde. Nuclei were then stained by DAPI for 5 min. Cells were washed with cold PBS and observed under fluorescence microscope (BZ-X710, Japan).
Cellular uptake of different DOX formulations was also quantified by flow cytometry. KB tumor cells seeded in 6-well plates (3×10^5/well) were treated with various DOX formulations as described above at a DOX concentration of 6 μg/mL. Following incubation at 37° C. for 30 min, cells were washed with cold PBS, fixed in PBS containing 4% (w/v) formaldehyde, and resuspended in 500 μL PBS for flow cytometry analysis with CyAn ADP Analyzer (Beckman Coulter, Inc.). Fluorescence was examined at an excitation wavelength of 480 nm and an emission wavelength of 570 nm. 2×10^4 events were collected for each sample.

[7] = system: 4T1.2 tumor; experiment: in vivo therapeutic study, syngeneic breast cancer model; set-up: species or system BALB/c mice; details: 4T1.2 model, treatments on day 0, 3, 6, i.v.
Excerpt: In vivo therapeutic study. […] Female BALB/c mice (4-6 weeks) were s.c. inoculated with 4T1.2 or CT26 cells (5×10^5 cells per mouse). […] Tumor sizes were monitored every three days following the initiation of the treatment and calculated by the formula: (Length×Width^2)/2. Body weights were also followed as an indication of toxicity. After completion of the experiment, tumor and major organs were collected for hematoxylin and eosin (H&E) staining. Blood samples were collected for biochemical analysis of alanine transaminase (ALT) and aspartate aminotransferase (AST).

[8] = system: 4T1.2, CT26, MDA-MB-468 and HCT116 tumor cell lines; experiment: MTT cytotoxicity of free 5-ASA, DOX and combination, 48 h; assay type: cell-based, murine, human; details: 5-ASA 0~1 mM, all four cell lines
Method: In vitro cytotoxicity. […] Cells were seeded in 96-well plates at a density of 5×10^3 cells/well with 100 μL of complete culture medium (DMEM or RPMI 1640 with 10% FBS and 1% streptomycin/penicillin). […] The absorbances of each well were measured at 590 nm and the cell viability was determined via the following formula: (ODtreated−ODblank)/(ODcontrol−ODblank)×100%.

[9] = system: PGE2 in CT26 tumor tissue; experiment: PGE2 level in tumor tissue, ELISA; set-up: species or system BALB/c mice; details: mouse, in vivo
Method: (§1) Prostaglandin E2 level analysis. To analyze the levels of prostaglandin E2 (PGE2) production in different cell lines, the cell culture mediums were collected after overnight incubation. To test PGE2 in the tumor tissues, the harvested tumors were homogenized, and the supernatants were obtained after centrifugation. PGE2 in the supernatants was detected using Abcam Prostaglandin E2 ELISA Kit.

[10] = system: PGE2; experiment: inhibition of PGE2 production by 5-ASA; assay type: cell-based; details: 5-ASA concentration 1 mM; read-out: production of PGE2 inhibited
Method: as §1

[11] = system: esophageal squamous cell carcinoma; details: cited from earlier work

CCc1cccc2c3c([nH]c12)C(CC)(CC(=O)O)OCC3 (centres unmarked) [Etodolac]
inhibition of cancer cells [1]: dose dependent inhibition of endometrial cancer cells

COc1cccc2c1C(=O)c1c(O)c3c(c(O)c1C2=O)C[C@@](O)(C(=O)CO)C[C@@H]3O[C@H]1C[C@H](N)[C@H](O)[C@H](C)O1 [DOX, doxorubicin]
cytotoxicity (inhibition of cell proliferation) [2]: inhibited the cell proliferation in a dose-dependent manner | body weights ([3]; mouse, in vivo): slight decrease in body weights on day 9 | liver histology ([3]; mouse, in vivo): hepatocellular vacuolation was found | serum levels of AST / ALT ([3]; versus control group): significantly higher than those in the control group | DOX fluorescence signals in tumor tissues [4]: low level and scattered DOX fluorescence signals | diffusion across the dialysis membrane [5]: rapidly diffused across the dialysis membrane | cellular uptake ([6]; 30 min, DOX 6 μg/mL): efficiently taken up | effect of free folate on cellular uptake ([6]; excess free folate 100 μM): no effect | antitumor activity (tumor growth) [7]: modest antitumor activity

Nc1ccc(O)c(C(=O)O)c1 [5-ASA, 5-aminosalicylic acid]
anti-proliferation effect / cytotoxicity [8]: did not show any significant anti-proliferation effect; also recorded: minimal cytotoxicity | level of PGE2 in CT26 tumor tissue [9]: minimal effect | inhibition at 1000 µM [10]: 80%

Cc1ccc(-c2cc(C(F)(F)F)nn2-c2ccc(S(N)(=O)=O)cc2)cc1 [Celecoxib]
effect on 5-FU antitumor effects [11]: enhances 5-Fluorouracil (5-FU) antitumor effects
